Experimental data published in ChEMBL document CHEMBL3045722, “Synthesis, calcium-channel blocking activity, and conformational analysis of some novel 1,4-dihydropyridines: application of PM3 and DFT computational methods” (Med Chem Res, 2012).

Each molecule was assayed against Voltage-dependent L-type calcium channel subunit alpha-1C (Cavia porcellus, UniProt O35505) (assay: Antagonist activity at Cavia porcellus albino (guinea pig) calcium channel assessed as inhibition of KCl-induced ileal longitudinal smooth muscle contraction).
Chain of Voltage-dependent L-type calcium channel subunit alpha-1C (O35505 whole entry): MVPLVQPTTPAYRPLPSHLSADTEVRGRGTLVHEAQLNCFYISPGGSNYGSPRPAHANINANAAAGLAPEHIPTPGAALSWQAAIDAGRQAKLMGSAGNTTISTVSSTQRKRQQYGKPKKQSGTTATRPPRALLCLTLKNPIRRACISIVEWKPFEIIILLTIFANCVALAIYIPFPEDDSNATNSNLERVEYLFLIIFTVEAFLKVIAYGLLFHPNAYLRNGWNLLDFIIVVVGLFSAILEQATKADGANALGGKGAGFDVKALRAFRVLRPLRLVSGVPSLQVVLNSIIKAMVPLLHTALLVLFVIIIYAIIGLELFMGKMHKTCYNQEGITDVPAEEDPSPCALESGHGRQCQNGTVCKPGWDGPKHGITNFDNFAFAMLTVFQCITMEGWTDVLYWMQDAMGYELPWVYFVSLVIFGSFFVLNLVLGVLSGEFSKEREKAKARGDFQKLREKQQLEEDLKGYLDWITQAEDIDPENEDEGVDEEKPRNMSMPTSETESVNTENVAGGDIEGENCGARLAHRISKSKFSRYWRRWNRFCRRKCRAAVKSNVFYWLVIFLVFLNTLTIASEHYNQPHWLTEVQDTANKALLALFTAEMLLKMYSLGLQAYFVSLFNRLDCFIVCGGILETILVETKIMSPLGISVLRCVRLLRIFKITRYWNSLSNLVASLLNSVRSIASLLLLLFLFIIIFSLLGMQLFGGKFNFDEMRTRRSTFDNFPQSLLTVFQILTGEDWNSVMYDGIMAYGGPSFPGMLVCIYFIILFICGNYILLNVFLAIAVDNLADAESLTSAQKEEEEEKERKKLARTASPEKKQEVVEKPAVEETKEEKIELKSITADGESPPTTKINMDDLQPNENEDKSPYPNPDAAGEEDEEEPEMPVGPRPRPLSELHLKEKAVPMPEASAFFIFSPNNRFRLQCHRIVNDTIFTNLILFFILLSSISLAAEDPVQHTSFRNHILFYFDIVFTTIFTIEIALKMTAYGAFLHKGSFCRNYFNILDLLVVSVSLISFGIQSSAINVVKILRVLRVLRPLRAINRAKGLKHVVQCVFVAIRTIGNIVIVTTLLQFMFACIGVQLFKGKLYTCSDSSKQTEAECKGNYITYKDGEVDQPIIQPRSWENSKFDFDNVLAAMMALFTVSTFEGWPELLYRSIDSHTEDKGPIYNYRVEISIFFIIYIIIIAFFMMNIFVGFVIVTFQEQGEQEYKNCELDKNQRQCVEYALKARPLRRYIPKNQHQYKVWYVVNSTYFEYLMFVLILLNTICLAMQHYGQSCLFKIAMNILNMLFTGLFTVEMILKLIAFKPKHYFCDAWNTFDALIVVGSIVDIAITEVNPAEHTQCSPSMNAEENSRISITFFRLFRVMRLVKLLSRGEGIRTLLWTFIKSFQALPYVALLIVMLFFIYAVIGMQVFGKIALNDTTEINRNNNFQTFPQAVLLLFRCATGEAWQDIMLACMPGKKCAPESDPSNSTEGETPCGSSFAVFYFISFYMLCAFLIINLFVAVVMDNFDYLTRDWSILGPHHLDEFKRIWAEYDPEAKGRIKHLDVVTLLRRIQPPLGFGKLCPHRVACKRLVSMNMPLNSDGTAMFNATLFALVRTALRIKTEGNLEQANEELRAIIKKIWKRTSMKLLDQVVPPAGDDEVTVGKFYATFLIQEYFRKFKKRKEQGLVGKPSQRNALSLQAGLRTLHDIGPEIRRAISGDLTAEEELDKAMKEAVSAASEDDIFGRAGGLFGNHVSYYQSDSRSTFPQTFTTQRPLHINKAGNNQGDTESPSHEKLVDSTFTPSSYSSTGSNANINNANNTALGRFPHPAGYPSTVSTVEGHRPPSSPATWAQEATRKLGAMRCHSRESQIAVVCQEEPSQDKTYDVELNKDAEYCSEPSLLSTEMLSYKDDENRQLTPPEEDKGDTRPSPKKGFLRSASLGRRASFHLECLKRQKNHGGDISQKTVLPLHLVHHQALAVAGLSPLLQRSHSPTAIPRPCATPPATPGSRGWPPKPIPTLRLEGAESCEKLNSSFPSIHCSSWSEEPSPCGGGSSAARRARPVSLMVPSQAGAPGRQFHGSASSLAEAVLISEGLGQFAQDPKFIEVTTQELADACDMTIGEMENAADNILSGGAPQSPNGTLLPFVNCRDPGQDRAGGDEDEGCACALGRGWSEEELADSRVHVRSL
CCOC(=O)C1=C(C)NC(C)=C(C(=O)OC(C)C)C1c1cnc(SC)n1Nc1ccccc1 (stereo not drawn) gave an IC50 of 3.22 nM.
In the case of COC(=O)C1=C(C)NC(C)=C(C(=O)OCCCc2ccccc2)C1c1cnc(SC)n1Nc1ccccc1 (stereo not drawn), the IC50 is reported as 3.05 nM.
For CSc1ncc(C2C(C(=O)OC(C)C)=C(C)NC(C)=C2C(=O)OC(C)(C)C)n1Nc1ccccc1 (stereo not drawn), the IC50 was 68.2 nM.
CSc1ncc(C2C(C(=O)OCc3ccccc3)=C(C)NC(C)=C2C(=O)OC(C)C)n1Nc1ccccc1 (stereo not drawn) gave an IC50 of 7.24 nM.
Molecule CCOC(=O)C1=C(C)NC(C)=C(C(=O)OCC)C1c1cnc(SC)n1Nc1ccccc1 has an IC50 of 1.69 nM.
CSc1ncc(C2C(C(=O)OCc3ccccc3)=C(C)NC(C)=C2C(=O)OCc2ccccc2)n1Nc1ccccc1 was tested, and the IC50 was 1.49 nM.
In the case of CSc1ncc(C2C(C(=O)OCC(C)C)=C(C)NC(C)=C2C(=O)OCC(C)C)n1Nc1ccccc1, the IC50 is reported as 6.71 nM.
In the case of CSc1ncc(C2C(C(=O)OC3CCCCC3)=C(C)NC(C)=C2C(=O)OC2CCCCC2)n1Nc1ccccc1, the IC50 is reported as 465 nM.
In the case of CCCOC(=O)C1=C(C)NC(C)=C(C(=O)OCCC)C1c1cnc(SC)n1Nc1ccccc1, the IC50 is reported as 2.29 nM.
In the case of COC(=O)C1=C(C)NC(C)=C(C(=O)OC)C1c1cnc(SC)n1Nc1ccccc1, the IC50 is reported as 3.54 nM.
For CCCOC(=O)C1=C(C)NC(C)=C(C(=O)OC)C1c1cnc(SC)n1Nc1ccccc1 (stereo not drawn), the IC50 was 2.4 nM.
COC(=O)C1=C(C)NC(C)=C(C(=O)OCc2ccccc2)C1c1cnc(SC)n1Nc1ccccc1 (stereo not drawn) showed an IC50 of 2.21 nM.
With CSc1ncc(C2C(C(=O)OCCCc3ccccc3)=C(C)NC(C)=C2C(=O)OC(C)C)n1Nc1ccccc1 (stereo not drawn) the IC50 was 6.22 nM.
CSc1ncc(C2C(C(=O)OCC3CCCCC3)=C(C)NC(C)=C2C(=O)OCC2CCCCC2)n1Nc1ccccc1 was tested, and the IC50 was 621 nM.
Molecule CSc1ncc(C2C(C(=O)OCCCc3ccccc3)=C(C)NC(C)=C2C(=O)OCCCc2ccccc2)n1Nc1ccccc1 has an IC50 of 3.15 nM.
Molecule CSc1ncc(C2C(C(=O)OC3CCCC3)=C(C)NC(C)=C2C(=O)OC2CCCC2)n1Nc1ccccc1 has an IC50 of 425 nM.
For CCOC(=O)C1=C(C)NC(C)=C(C(=O)OCCOC)C1c1cnc(SC)n1Nc1ccccc1 (stereo not drawn), the IC50 was 2.91 nM.
For CSc1ncc(C2C(C(=O)OCC3CCCCC3)=C(C)NC(C)=C2C(=O)OC(C)C)n1Nc1ccccc1 (stereo not drawn), the IC50 was 56 nM.
CSc1ncc(C2C(C(=O)OCCc3ccccc3)=C(C)NC(C)=C2C(=O)OCCc2ccccc2)n1Nc1ccccc1 was tested, and the IC50 was 2.79 nM.
COCCOC(=O)C1=C(C)NC(C)=C(C(=O)OC(C)C)C1c1cnc(SC)n1Nc1ccccc1 (stereo not drawn) was tested, and the IC50 was 53.4 nM.
COC(=O)C1=C(C)NC(C)=C(C(=O)OC(C)C)C1c1cnc(SC)n1Nc1ccccc1 (stereo not drawn) was tested, and the IC50 was 6.35 nM.
For CCOC(=O)C1=C(C)NC(C)=C(C(=O)OCc2ccccc2)C1c1cnc(SC)n1Nc1ccccc1 (stereo not drawn), the IC50 was 1.86 nM.
Molecule COCCOC(=O)C1=C(C)NC(C)=C(C(=O)OCCOC)C1c1cnc(SC)n1Nc1ccccc1 has an IC50 of 17.9 nM.
CCOC(=O)C1=C(C)NC(C)=C(C(=O)OC)C1c1cnc(SC)n1Nc1ccccc1 (stereo not drawn) gave an IC50 of 1.66 nM.
In the case of CSc1ncc(C2C(C(=O)OC(C)(C)C)=C(C)NC(C)=C2C(=O)OC(C)(C)C)n1Nc1ccccc1, the IC50 is reported as 121 nM.
CCOC(=O)C1=C(C)NC(C)=C(C(=O)OCCCc2ccccc2)C1c1cnc(SC)n1Nc1ccccc1 (stereo not drawn) was tested, and the IC50 was 2.54 nM.
CSc1ncc(C2C(C(=O)OC(C)C)=C(C)NC(C)=C2C(=O)OC(C)C)n1Nc1ccccc1 showed an IC50 of 2.16 nM.
With COCCOC(=O)C1=C(C)NC(C)=C(C(=O)OC)C1c1cnc(SC)n1Nc1ccccc1 (stereo not drawn) the IC50 was 9.65 nM.
